Assay results reported in the supplement of paper PMC10307832.

Columns and labels:
Experiment in all cases: relative viability (nuclei count vs DMSO), 5 days (fraction); higher = more cells survive
AZD8055 + Navitoclax = compound: COc1ccc(-c2ccc3c(N4CCOC[C@@H]4C)nc(N4CCOC[C@@H]4C)nc3n2)cc1CO [AZD8055] + CC1(C)CCC(c2ccc(Cl)cc2)=C(CN2CCN(c3ccc(C(=O)NS(=O)(=O)c4ccc(N[C@H](CCN5CCOCC5)CSc5ccccc5)c(S(=O)(=O)C(F)(F)F)c4)cc3)CC2)C1 [Navitoclax] (partner 0.5 µM)
How it was run: (§1)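 Relative viability divides the nuclei count in treated wells by that in vehicle wells. Lung cancer cell lines were seeded in 1536-well plates, dosed by pin tool the next day, and fixed and stained after 5 days in one step with final 0.05% Triton X-100, 1% formaldehyde and 1 ug/ml Hoechst. Dosing was a single drug or a fixed anchor-drug dose plus five library-drug doses (not always all listed) in √10 steps, and values are medians of duplicate plates imaged at 4×.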

AZD8055 + Linsitinib = compound: COc1ccc(-c2ccc3c(N4CCOC[C@@H]4C)nc(N4CCOC[C@@H]4C)nc3n2)cc1CO [AZD8055] + C[C@]1(O)C[C@@H](c2nc(-c3ccc4ccc(-c5ccccc5)nc4c3)c3c(N)nccn32)C1 [Linsitinib] (partner 1 µM)
How it was run: as §1

AZD8055 + Alpelisib = compound: COc1ccc(-c2ccc3c(N4CCOC[C@@H]4C)nc(N4CCOC[C@@H]4C)nc3n2)cc1CO [AZD8055] + Cc1nc(NC(=O)N2CCC[C@H]2C(N)=O)sc1-c1ccnc(C(C)(C)C(F)(F)F)c1 [Alpelisib] (partner 2 µM)
How it was run: as §1

AZD8055 + Vorinostat = compound: COc1ccc(-c2ccc3c(N4CCOC[C@@H]4C)nc(N4CCOC[C@@H]4C)nc3n2)cc1CO [AZD8055] + O=C(CCCCCCC(=O)Nc1ccccc1)NO [Vorinostat] (partner 1 µM)
How it was run: as §1

Cell Line | relative viability (AZD8055 + Navitoclax; first compound 0.01 µM) | relative viability (AZD8055 + Navitoclax; first compound 0.03162 µM) | relative viability (AZD8055 + Navitoclax; first compound 0.1 µM) | relative viability (AZD8055 + Navitoclax; first compound 0.3162 µM) | relative viability (AZD8055 + Navitoclax; first compound 1 µM) | relative viability (AZD8055 + Linsitinib; first compound 0.01 µM) | relative viability (AZD8055 + Linsitinib; first compound 0.03162 µM) | relative viability (AZD8055 + Linsitinib; first compound 0.1 µM) | relative viability (AZD8055 + Linsitinib; first compound 0.3162 µM) | relative viability (AZD8055 + Linsitinib; first compound 1 µM) | relative viability (AZD8055 + Alpelisib; first compound 0.01 µM) | relative viability (AZD8055 + Alpelisib; first compound 0.03162 µM) | relative viability (AZD8055 + Alpelisib; first compound 0.1 µM) | relative viability (AZD8055 + Alpelisib; first compound 0.3162 µM) | relative viability (AZD8055 + Alpelisib; first compound 1 µM) | relative viability (AZD8055 + Vorinostat; first compound 0.01 µM) | relative viability (AZD8055 + Vorinostat; first compound 0.03162 µM) | relative viability (AZD8055 + Vorinostat; first compound 0.1 µM) | relative viability (AZD8055 + Vorinostat; first compound 0.3162 µM) | relative viability (AZD8055 + Vorinostat; first compound 1 µM)
LK-2 | 0.797 | 0.584 | 0.441 | 0.216 | 0.241 | 0.334 | 0.28 | 0.249 | 0.164 | 0.238 | 1.03 | 0.658 | 0.447 | 0.331 | 0.265 | 0.3 | 0.172 | 0.271 | 0.167 | 0.157
NCI-H661 |  |  |  |  |  | 0.567 | 0.41 | 0.516 | 0.253 | 0.293 | 0.801 | 0.411 | 0.399 | 0.397 | 0.275 | 0.866 | 0.791 | 0.707 | 0.465 | 0.4
HCC-366 | 1.15 | 0.911 | 0.694 | 0.418 | 0.132 | 0.539 | 0.245 | 0.218 | 0.0598 | 0.0927 | 0.479 | 0.243 | 0.169 | 0.0661 | 0.07 | 0.372 | 0.205 | 0.182 | 0.0725 | 0.0602
HOP-62 | 1.09 | 1.11 | 1.17 | 0.75 | 0.594 | 1.09 | 0.789 | 0.869 | 0.362 | 0.266 | 1.26 | 1.18 | 0.667 | 0.434 | 0.26 | 0.636 | 0.413 | 0.587 | 0.298 | 0.183
NCI-H1944 | 1.05 | 0.929 | 0.851 | 0.457 | 0.316 | 1.13 | 0.843 | 0.693 | 0.477 | 0.335 | 0.716 | 0.63 | 0.543 | 0.366 | 0.25 | 0.518 | 0.431 | 0.422 | 0.223 | 0.207
SW 1573 | 0.869 | 0.855 | 0.646 | 0.304 | 0.21 | 0.725 | 0.584 | 0.484 | 0.267 | 0.153 | 0.707 | 0.51 | 0.55 | 0.301 | 0.211 | 0.791 | 0.452 | 0.773 | 0.21 | 0.199
EBC-1 | 0.312 | 0.187 | 0.213 | 0.182 | 0.205 | 1.06 | 0.724 | 0.437 | 0.235 | 0.16 | 0.827 | 0.421 | 0.373 | 0.265 | 0.259 |  |  |  |  | 
NCI-H1648 |  |  |  |  |  |  |  |  |  |  |  |  |  |  |  | 0.501 | 0.451 | 0.293 | 0.287 | 0.273
SW 900 |  |  |  |  |  |  |  |  |  |  |  |  |  |  |  | 0.461 | 0.499 | 0.538 | 0.325 | 0.265
ABC-1 |  |  |  |  |  | 0.845 | 0.484 | 0.551 | 0.425 | 0.323 | 0.897 | 0.847 | 0.65 | 0.404 | 0.515 | 1.07 | 1.15 | 1.12 | 0.466 | 0.533
NCI-H1792 | 0.89 | 0.518 | 0.51 | 0.13 | 0.086 | 0.292 | 0.233 | 0.223 | 0.128 | 0.101 | 0.447 | 0.482 | 0.361 | 0.131 | 0.108 |  |  |  |  | 
NCI-H1563 |  |  |  |  |  | 0.971 | 0.802 | 0.699 | 0.625 | 0.743 | 0.82 | 0.61 | 0.603 | 0.51 | 0.673 |  |  |  |  | 
NCI-H1299 | 1.05 | 1.08 | 1.02 | 0.939 | 0.67 | 1.08 | 0.948 | 0.798 | 0.436 | 0.295 | 1.17 | 1.04 | 1.06 | 0.628 | 0.468 |  |  |  |  | 
ChaGo-K-1 | 1.09 | 1.08 | 1.3 | 0.655 | 0.44 |  |  |  |  |  |  |  |  |  |  | 0.769 | 0.673 | 0.741 | 0.631 | 0.541
NCI-H2170 | 0.59 | 0.517 | 0.295 | 0.189 | 0.191 |  |  |  |  |  | 0.691 | 0.623 | 0.386 | 0.288 | 0.252 | 0.815 | 0.734 | 0.487 | 0.271 | 0.226
NCI-H522 |  |  |  |  |  |  |  |  |  |  |  |  |  |  |  | 0.898 | 0.731 | 0.876 | 0.666 | 0.499
A549 | 1.21 | 0.74 | 0.454 | 0.189 | 0.143 | 0.552 | 0.382 | 0.246 | 0.11 | 0.0862 | 0.524 | 0.373 | 0.223 | 0.0986 | 0.109 |  |  |  |  | 
NCI-H358 |  |  |  |  |  | 0.728 | 0.561 | 0.429 | 0.209 | 0.236 | 0.714 | 0.786 | 0.75 | 0.295 | 0.216 | 0.775 | 0.701 | 0.624 | 0.207 | 0.121
NCI-H650 |  |  |  |  |  | 0.889 | 0.575 | 0.556 | 0.342 | 0.293 | 0.968 | 0.834 | 0.695 | 0.385 | 0.385 | 0.496 | 0.352 | 0.478 | 0.231 | 0.146
LCLC-103H |  |  |  |  |  | 1 | 0.929 | 0.723 | 0.467 | 0.481 | 0.956 | 0.88 | 0.774 | 0.538 | 0.422 | 0.825 | 0.765 | 0.619 | 0.445 | 0.437
NCI-H1650 | 1.01 | 1.15 | 1.07 | 0.519 | 0.502 |  |  |  |  |  |  |  |  |  |  | 0.729 | 0.436 | 0.521 | 0.265 | 0.236
Calu-6 | 0.886 | 0.792 | 0.621 | 0.32 | 0.313 | 1.09 | 0.77 | 0.637 | 0.356 | 0.329 | 0.911 | 0.69 | 0.524 | 0.399 | 0.339 |  |  |  |  | 
